Measured values: PubChem BioAssay AID1963874 (Molecular Pharmacology Branch, DTP, NCI, 2024)

System: 253994-281-T-J1-PDC KRAS-mutant spheroids with HUVEC/MSC, viability
Test: Anticancer human tumor 253994-281-T-J1-PDC patient-derived colorectal carcinoma cell line growth inhibition [KRAS2]
Settings: for IC50: curve of first compound; for viability, T/C: stronger effect = lower value
How it was run: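 Combination screen of spheroid viability in tumor-cell co-cultures with endothelial (HUVEC) and mesenchymal stem cell stroma. Each agent was tested in half-log dilutions, topping at clinical Cmax or at 10 microM without a known Cmax.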

[1] = second compound 0.1 µM, first compound 0.0316 µM
[2] = second compound 0.1 µM, first compound 0.1 µM
[3] = second compound 0.1 µM, first compound 0.316 µM
[4] = second compound 0.1 µM, first compound 1 µM
[5] = second compound 0.1 µM, first compound 3.16 µM
[6] = second compound 0.1 µM, first compound 10 µM
[7] = second compound 0.316 µM, first compound 0.0316 µM
[8] = second compound 0.316 µM, first compound 0.1 µM
[9] = second compound 0.316 µM, first compound 0.316 µM
[10] = second compound 0.316 µM, first compound 1 µM
[11] = second compound 0.316 µM, first compound 3.16 µM
[12] = second compound 0.316 µM, first compound 10 µM
[13] = second compound 1 µM, first compound 0.0316 µM
[14] = second compound 1 µM, first compound 0.1 µM
[15] = second compound 1 µM, first compound 0.316 µM
[16] = second compound 1 µM, first compound 1 µM
[17] = second compound 1 µM, first compound 3.16 µM
[18] = second compound 1 µM, first compound 10 µM
[19] = second compound 3.16 µM, first compound 0.0316 µM
[20] = second compound 3.16 µM, first compound 0.1 µM
[21] = second compound 3.16 µM, first compound 0.316 µM
[22] = second compound 3.16 µM, first compound 1 µM
[23] = second compound 3.16 µM, first compound 3.16 µM
[24] = second compound 3.16 µM, first compound 10 µM
[25] = second compound 10 µM, first compound 0.0316 µM
[26] = second compound 10 µM, first compound 0.1 µM
[27] = second compound 10 µM, first compound 0.316 µM
[28] = second compound 10 µM, first compound 1 µM
[29] = second compound 10 µM, first compound 3.16 µM
[30] = second compound 10 µM, first compound 10 µM
[31] = second compound 0.1 µM, first compound 0.00316 µM
[32] = second compound 0.1 µM, first compound 0.01 µM
[33] = second compound 0.316 µM, first compound 0.00316 µM
[34] = second compound 0.316 µM, first compound 0.01 µM
[35] = second compound 1 µM, first compound 0.00316 µM
[36] = second compound 1 µM, first compound 0.01 µM
[37] = second compound 3.16 µM, first compound 0.00316 µM
[38] = second compound 3.16 µM, first compound 0.01 µM
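Also: spheroids exposed to agents for seven days before readout.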
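For viability, T/C in this document: percent of DMSO vehicle control viability.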

COc1cc2nccc(Oc3ccc(NC(=O)C4(C(=O)Nc5ccc(F)cc5)CC4)cc3)c2cc1OC + C=CC(=O)N1CCN(c2nc(=O)n(-c3c(C)ccnc3C(C)C)c3nc(-c4c(O)cccc4F)c(F)cc23)C(C)C1
IC50 (second compound 0.1 µM): > 10000 nM
IC50 (second compound 0.316 µM): > 10000 nM
IC50 (second compound 1 µM): > 10000 nM
IC50 (second compound 3.16 µM): > 10000 nM
IC50 (second compound 10 µM): > 10000 nM
viability, T/C [1]: 108%
viability, T/C [2]: 116%
viability, T/C [3]: 102%
viability, T/C [4]: 102%
viability, T/C [5]: 101%
viability, T/C [6]: 71.7%
viability, T/C [7]: 109%
viability, T/C [8]: 116%
viability, T/C [9]: 101%
viability, T/C [10]: 107%
viability, T/C [11]: 96.3%
viability, T/C [12]: 84.6%
viability, T/C [13]: 108%
viability, T/C [14]: 112%
viability, T/C [15]: 120%
viability, T/C [16]: 84.5%
viability, T/C [17]: 89.8%
viability, T/C [18]: 85.2%
viability, T/C [19]: 107%
viability, T/C [20]: 101%
viability, T/C [21]: 100%
viability, T/C [22]: 90.2%
viability, T/C [23]: 102%
viability, T/C [24]: 59.3%
viability, T/C [25]: 101%
viability, T/C [26]: 109%
viability, T/C [27]: 87.4%
viability, T/C [28]: 99.2%
viability, T/C [29]: 81.3%
viability, T/C [30]: 61.7%

CN(C)C/C=C/C(=O)Nc1cc2c(Nc3ccc(F)c(Cl)c3)ncnc2cc1O[C@H]1CCOC1 + C=CC(=O)N1CCN(c2nc(OCC3CCCN3C)nc3c2CCN(c2cccc4cccc(C)c24)C3)CC1CC#N
IC50 (second compound 0.0316 µM): > 100 nM
IC50 (second compound 0.1 µM): > 100 nM
IC50 (second compound 0.316 µM): > 100 nM
IC50 (second compound 1 µM): > 100 nM
IC50 (second compound 3.16 µM): 0.72 nM
viability, T/C (second compound 0.0316 µM, first compound 0.000316 µM): 95.7%
viability, T/C (second compound 0.0316 µM, first compound 0.001 µM): 89.4%
viability, T/C (second compound 0.0316 µM, first compound 0.00316 µM): 92.3%
viability, T/C (second compound 0.0316 µM, first compound 0.01 µM): 95.7%
viability, T/C (second compound 0.0316 µM, first compound 0.0316 µM): 88.5%
viability, T/C (second compound 0.0316 µM, first compound 0.1 µM): 54%
viability, T/C (second compound 0.1 µM, first compound 0.000316 µM): 83.2%
viability, T/C (second compound 0.1 µM, first compound 0.001 µM): 91.5%
viability, T/C [31]: 76.6%
viability, T/C [32]: 86.1%
viability, T/C [1]: 69.2%
viability, T/C [2]: 53.8%
viability, T/C (second compound 0.316 µM, first compound 0.000316 µM): 95.7%
viability, T/C (second compound 0.316 µM, first compound 0.001 µM): 81.3%
viability, T/C [33]: 87.5%
viability, T/C [34]: 77.4%
viability, T/C [7]: 78.3%
viability, T/C [8]: 66.5%
viability, T/C (second compound 1 µM, first compound 0.000316 µM): 97.9%
viability, T/C (second compound 1 µM, first compound 0.001 µM): 108%
viability, T/C [35]: 83.1%
viability, T/C [36]: 69.4%
viability, T/C [13]: 73.1%
viability, T/C [14]: 62.2%
viability, T/C (second compound 3.16 µM, first compound 0.000316 µM): 53.8%
viability, T/C (second compound 3.16 µM, first compound 0.001 µM): 48.5%
viability, T/C [37]: 4.58%
viability, T/C [38]: 22%
viability, T/C [19]: 19.6%
viability, T/C [20]: 5.55%

CCNC(=O)CC1N=C(c2ccc(Cl)cc2)c2cc(OC)ccc2-n2c(C)nnc21 (stereo not given) + COc1cc2nc(C)nc(NC(C)c3cc(N)cc(C(F)(F)F)c3)c2cc1OC1CCOC1
IC50 (second compound 0.1 µM): > 10000 nM
IC50 (second compound 0.316 µM): > 10000 nM
IC50 (second compound 1 µM): 7760 nM
IC50 (second compound 3.16 µM): 5930 nM
IC50 (second compound 10 µM): 3250 nM
viability, T/C [1]: 99%
viability, T/C [2]: 93.9%
viability, T/C [3]: 78.1%
viability, T/C [4]: 76.5%
viability, T/C [5]: 70.5%
viability, T/C [6]: 71.8%
viability, T/C [7]: 87.5%
viability, T/C [8]: 97.6%
viability, T/C [9]: 77.9%
viability, T/C [10]: 68.4%
viability, T/C [11]: 73%
viability, T/C [12]: 51.1%
viability, T/C [13]: 92.9%
viability, T/C [14]: 95.4%
viability, T/C [15]: 79.8%
viability, T/C [16]: 69.5%
viability, T/C [17]: 61%
viability, T/C [18]: 46.7%
viability, T/C [19]: 86.3%
viability, T/C [20]: 89.1%
viability, T/C [21]: 78.5%
viability, T/C [22]: 70.3%
viability, T/C [23]: 52.7%
viability, T/C [24]: 47.2%
viability, T/C [25]: 82.6%
viability, T/C [26]: 83.2%
viability, T/C [27]: 87.1%
viability, T/C [28]: 62.9%
viability, T/C [29]: 53.4%
viability, T/C [30]: 31.6%

CCN1CCN(Cc2ccc(Nc3ncc(F)c(-c4cc(F)c5nc(C)n(C(C)C)c5c4)n3)nc2)CC1 + COc1cc2nc(C)nc(NC(C)c3cc(N)cc(C(F)(F)F)c3)c2cc1OC1CCOC1
IC50 (second compound 0.1 µM): 390 nM
IC50 (second compound 0.316 µM): 317 nM
IC50 (second compound 1 µM): 321 nM
IC50 (second compound 3.16 µM): 236 nM
IC50 (second compound 10 µM): 162 nM
viability, T/C [31]: 102%
viability, T/C [32]: 93.3%
viability, T/C [1]: 83%
viability, T/C [2]: 62.9%
viability, T/C [3]: 55.3%
viability, T/C [4]: 38.9%
viability, T/C [33]: 79.6%
viability, T/C [34]: 86.8%
viability, T/C [7]: 74.3%
viability, T/C [8]: 64.4%
viability, T/C [9]: 51.3%
viability, T/C [10]: 33.7%
viability, T/C [35]: 80.4%
viability, T/C [36]: 90.5%
viability, T/C [13]: 74.7%
viability, T/C [14]: 61.8%
viability, T/C [15]: 53.3%
viability, T/C [16]: 35.5%
viability, T/C [37]: 90.2%
viability, T/C [38]: 73.9%
viability, T/C [19]: 70.8%
viability, T/C [20]: 57.6%
viability, T/C [21]: 53.3%
viability, T/C [22]: 29.4%
viability, T/C (second compound 10 µM, first compound 0.00316 µM): 78%
viability, T/C (second compound 10 µM, first compound 0.01 µM): 86.3%
viability, T/C [25]: 72.7%
viability, T/C [26]: 53.8%
viability, T/C [27]: 40.6%
viability, T/C [28]: 8.08%

COc1cc(Nc2ncc3c(n2)-c2ccc(Cl)cc2C(c2c(F)cccc2OC)=NC3)ccc1C(=O)O
viability, T/C (compound 0.0316 µM): 64.9% [middle of 5 runs]
viability, T/C (compound 0.1 µM): 38.8% [middle of 5 runs]
viability, T/C (compound 0.316 µM): 39.4% [middle of 5 runs]
viability, T/C (compound 1 µM): 44.9% [middle of 5 runs]
viability, T/C (compound 10 µM): 60.8% [middle of 5 runs]

Cn1nccc1Nc1nccc(-c2cc3c(s2)C(C)(C)N(CCN2CCOCC2)C3=O)n1 + CC1OCC2(CCN(c3cnc(Sc4ccnc(N)c4Cl)c(N)n3)CC2)C1N
IC50 (second compound 0.1 µM): 1460 nM
IC50 (second compound 0.316 µM): 745 nM
IC50 (second compound 1 µM): 280 nM
IC50 (second compound 3.16 µM): 110 nM
IC50 (second compound 10 µM): < 31.6 nM
viability, T/C [1]: 81.1%
viability, T/C [2]: 82.9%
viability, T/C [3]: 74.9%
viability, T/C [4]: 59%
viability, T/C [5]: 32.3%
viability, T/C [6]: 18.9%
viability, T/C [7]: 77%
viability, T/C [8]: 79.2%
viability, T/C [9]: 63.1%
viability, T/C [10]: 45.6%
viability, T/C [11]: 26%
viability, T/C [12]: 17.9%
viability, T/C [13]: 68.3%
viability, T/C [14]: 64.6%
viability, T/C [15]: 48.3%
viability, T/C [16]: 22.5%
viability, T/C [17]: 13.2%
viability, T/C [18]: 15%
viability, T/C [19]: 60.8%
viability, T/C [20]: 50.2%
viability, T/C [21]: 34.8%
viability, T/C [22]: 15.3%
viability, T/C [23]: 10%
viability, T/C [24]: 8.2%
viability, T/C [25]: 39.8%
viability, T/C [26]: 28.4%
viability, T/C [27]: 15.4%
viability, T/C [28]: 8.1%
viability, T/C [29]: 4.83%
viability, T/C [30]: 6.14%
